# Molecular target: T1, recombinant human liver GK (Homo sapiens, UniProt P35557)
# T1 construct: made in house; host or cells: E. coli
# T1 sequence (P35557 1-466 isoform P35557-2): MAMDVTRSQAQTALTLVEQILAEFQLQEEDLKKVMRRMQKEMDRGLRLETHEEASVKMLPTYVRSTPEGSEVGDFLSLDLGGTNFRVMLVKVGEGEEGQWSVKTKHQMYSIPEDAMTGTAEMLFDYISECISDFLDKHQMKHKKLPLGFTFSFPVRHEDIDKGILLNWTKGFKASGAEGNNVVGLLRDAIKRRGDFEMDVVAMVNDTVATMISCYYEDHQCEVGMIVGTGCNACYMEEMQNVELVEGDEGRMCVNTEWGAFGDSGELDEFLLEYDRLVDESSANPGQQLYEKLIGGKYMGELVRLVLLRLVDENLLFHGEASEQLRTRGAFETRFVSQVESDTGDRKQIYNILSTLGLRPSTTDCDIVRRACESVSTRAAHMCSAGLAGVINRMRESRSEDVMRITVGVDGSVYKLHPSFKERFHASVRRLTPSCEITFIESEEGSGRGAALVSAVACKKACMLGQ
# Test: GK-activating potency: glucokinase activity via Thio-NADH level (G6PDH reporter enzyme)
# Type: biochemical
# Conditions: FLAG-GK, 30° C., final glucose concentration 2.5 mM; for Emax: OD level of DMSO control set as 100%
# Description: The excellent glucokinase-activating effect of the compounds of formula (I) may be determined by a method described in references (for example, Diabetes, Vol. 45, pp. 1671-1677, 1996), or in accordance with it.
# The glucokinase activity may be determined not by directly measuring glucose-6-phosphate but by measuring the level of Thio-NADH, which is produced when a reporter enzyme, glucose-6-phosphate dehydrogenase produces phosphogluconolactone from glucose-6-phosphate, and based on the level, the degree of glucokinase activity of the compound tested may be determined.
# In this assay, used was a recombinant human liver GK, which was expressed by E. coli as a FLAG fusion protein therein and was purified by ANTIFLAG M2 AFFINITY GEL (Sigma).
# Using a flat-bottomed 96-well plate, the assay was carried out at 30° C. 69 μl of an assay buffer (25 mM Hepes Buffer/pH=7.2, 2 mM MgCl2, 1 mM ATP, 0.5 mM TNAD, 1 mM dithiothreitol) was put into the plate, and 1 μl of a DMSO solution of the compound or DMSO alone as a control was added thereto. Next, 20 μl of an enzyme mixture (FLAG-GK, 20 U/ml G6PDH) cooled in ice was added to it, and 10 μl of a substrate, 25 mM glucose was added to it, and the reaction was initiated (final glucose concentration=2.5 mM).
# After the start of the reaction, the increase in the absorbance at 405 nm was measured for 12 minutes at intervals of 30 seconds, and the increase for the first 5 minutes was used for evaluating the compound tested. FLAG-GK was added so that the absorbance increase after 5 minutes in the presence of 1% DMSO could be from 0.04 to 0.06.
# The OD level of the DMSO control was set as 100%; and the OD level of the test compound at different concentrations was determined. From the OD level at each concentration, Emax (%) and EC50 (μM) were computed and used as the index of the GK-activating potency of the compound.
structure (smiles),measurement,value
"CCS(=O)(=O)c1ccc(Oc2cc3nc(-c4ccccn4)[nH]c3cc2CNS(C)(=O)=O)cc1 [Example 31, N-{[5-[4-(ethylsulfonyl)phenoxy]-2-(2-pyridinyl)-1H-benzimidazol-6-yl]methyl}methanesulfonamide]",EC50,490 nM
same,Emax,982%
"CS(=O)(=O)c1ccc(Oc2cc3nc(-c4ccccn4)[nH]c3cc2CN2C(=O)CCC2=O)cc1 [Example 1, 1-{[5-[4-(Methylsulfonyl)phenoxy]-2-(2-pyridinyl)-1H-benzimidazol-6-yl]methyl}pyrrolidine-2,5-dione]",EC50,120 nM
"CCS(=O)(=O)c1ccc(Oc2cc3nc(-c4ccccn4)[nH]c3cc2Cc2ccc(F)cc2)cc1 [Example 65, 5-[4-(Ethylsulfonyl)phenoxy]-6-(4-fluorobenzyl)-2-(2-pyridinyl)-1H-benzimidazole]",EC50,360 nM
same,Emax,805%
